The text below walks through data of patent publication US9981928B2, “Aryl sulfide derivatives and aryl sulfoxide derivatives as acaricides and insecticides” (BAYER CROPSCIENCE AKTIENGESELLSCHAFT, priority 2013, dated 2018).

Data set [1] can be described thus: log P determination by HPLC on reversed-phase columns (C 18), analogously to OECD Guideline 117. The format is physicochemical. Conditions: for logP (HCOOH): LC-MS in the acidic range, pH 2.7, 0.1% aqueous formic acid / acetonitrile; for logP (HCOOH) / logP (neutral): HPLC reversed-phase C 18; for logP (neutral): LC-MS in the neutral range, pH 7.8, 0.001 molar aqueous ammonium hydrogencarbonate / acetonitrile; for chromatographic logP: reversed-phase C18 HPLC column. The gist of the method:
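Reversed-phase C18 HPLC per OECD 117 with LC-MS detection and a linear 10→95% acetonitrile gradient. Acidic log P run at pH 2.7 with 0.1% formic acid in both eluents. Neutral log P run at pH 7.8 with 0.001 M aqueous ammonium hydrogencarbonate.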

Data set [2] deals with greenhouse red spider mite (Tetranychus urticae). The data set is described as follows: Tetranychus urticae spray test, OP-resistant (TETRUR), bean leaf disks. To be noted: bean leaf disks, after 6 days; for pest or weed control at 500 g/ha: Tetranychus urticae, foliar, 144 h, read-out: efficacy in %. The format is in vivo. As for the experimental part:
Tetranychus urticae—Spray Test, OP-Resistant (TETRUR)
Solvent: 78.0 parts by weight of acetone
• 1.5 parts by weight of dimethylformamide Emulsifier: alkylaryl polyglycol ether
To produce a suitable preparation of active compound, 1 part by weight of active compound is dissolved using the stated parts by weight of solvent and made up with water containing an emulsifier concentration of 1000 ppm until the desired concentration is attained. To produce further test concentrations, the preparation is diluted with emulsifier-containing water.
disks of bean leaves (Phaseolus vulgaris) infested with all stages of the greenhouse red spider mite (Tetranychus urticae) are sprayed with an active compound preparation of the desired concentration.
After 6 days, the efficacy in % is determined. 100% means that all the spider mites have been killed; 0% means that none of the spider mites have been killed.

The mark [3] stands for this setting: acidic range, pH 2.7, 0.1% aqueous formic acid and acetonitrile, read-out: log P[a] / log P(HCOOH).
[4] abbreviates: neutral range, pH 7.8, 0.001 molar aqueous ammonium hydrogencarbonate and acetonitrile, read-out: log P[b] / log P(neutral).

SMILES strings stand for the structures. “And” between values parts separate entries of the source, which are not always exact repeats. Equal entries are not always repeated. Where two headings read alike, the source gives them in different places.

On to `Cc1cc(F)c(-n2c(=O)n(CC(F)F)c(=O)n2CC(F)(F)F)cc1[S+]([O-])CC(F)(F)F` (stereo not drawn) [Example 168], for which, in data set [1], the “logP (HCOOH)” value amounted to 2.60 and the “logP (neutral)” value was 2.58. In data set [2] (application rate 500 g/ha), this compound yielded an efficacy in % of 90%.

For the compound `Cc1cc(F)c(N2C(=O)C(=O)N(CC(F)(F)F)C2=S)cc1SCC(F)(F)F` [Example 189], in data set [1], the “logP (HCOOH)” value amounted to 3.95. This compound displayed an efficacy in % in data set [2] (application rate 500 g/ha) of 90%.

With `Cc1cc(F)c(N2C(=O)CSC2=NCC(F)(F)F)cc1SCC(F)(F)F` [Example 11, 3-{2-Fluoro-4-methyl-5-[(2,2,2-trifluoroethyl)sulfanyl]phenyl}-2-[(2,2,2-trifluoroethyl)imino]-1,3-thiazolidin-4-one], the chromatographic logP in data set [1] (setting [3]) was determined as 3.6; in data set [1] (setting [4]), 3.5. Further, the pest or weed control at 500 g/ha in data set [2] (application rate 500 g/ha) came to 90%.

As to `Cc1ccc(-n2c(=O)n(C)c(=O)n2C(C)C)cc1SCC(F)(F)F` [Example 61], in data set [1], the “logP (HCOOH)” value is 3.33 and the “logP (neutral)” value was determined as 3.27. Further, the efficacy in % in data set [2] (application rate 500 g/ha) amounted to 90%.

Take `CCn1c(=O)n(CC)n(-c2ccc(C)c([S+]([O-])CC(F)(F)F)c2)c1=O` (stereo not drawn) [Example 138]: in data set [1], the “logP (HCOOH)” value turned out to be 2.20 and the “logP (neutral)” value stood at 2.19. In addition, in data set [2] (application rate 500 g/ha), the efficacy in % is recorded as 90%.

For `Cc1cc(F)c(N2C(=O)CN(Cc3ccccc3)C2=O)cc1SCC(F)(F)F` [Example 204], in data set [1], the “logP (HCOOH)” value is listed as 3.49 and the “logP (neutral)” value is given as 3.48. The efficacy in % in data set [2] (application rate 500 g/ha) amounted to 100%.

As to `Cc1cc(F)c(N2C(=O)N(C)C(C)(C)C2=O)cc1[S+]([O-])CC(F)(F)F` (stereo not drawn) [Example 17, 3-{2-Fluoro-4-methyl-5-[(2,2,2-trifluoroethyl)sulfinyl]phenyl}-1,5,5-trimethylimidazolidine-2,4-dione], the chromatographic logP in data set [1] (setting [3]) came to 2.04; in data set [1] (setting [4]) it was 2.01. The pest or weed control at 500 g/ha in data set [2] (application rate 500 g/ha) came out at 100%.

As to `Cn1c(=O)n(C2CC2)c(=O)n1-c1ccc(C(F)(F)F)c(SCC(F)(F)F)c1` [Example 53], in data set [1], the “logP (HCOOH)” value turned out to be 3.33 and the “logP (neutral)” value is reported as 3.23. This compound registered an efficacy in % in data set [2] (application rate 500 g/ha) of 100%.

Regarding `Cc1ccc(-n2c(=O)n(C)c(=O)n2-c2ccc(C)c([S+]([O-])CC(F)(F)F)c2)cc1[S+]([O-])CC(F)(F)F` (stereo not drawn) [Example 82], in data set [1], the “logP (HCOOH)” value is given as 2.67 and the “logP (neutral)” value worked out at 2.61. The efficacy in % in data set [2] (application rate 500 g/ha) was determined as 90%.

For `CCCn1c(=O)n(C)n(-c2cc(SCC(F)(F)F)c(C)cc2F)c1=O` [Example 160], in data set [1], the “logP (HCOOH)” value was 3.28 and the “logP (neutral)” value is 3.22. For the same compound, the efficacy in % in data set [2] (application rate 100 g/ha) is given as 100%.

With `Cc1cc(F)c(N2C(=O)N(C)C(C)(C)C2=O)cc1SCC(F)(F)F` [Example 18, 3-{2-Fluoro-4-methyl-5-[(2,2,2-trifluoroethyl)sulfanyl]phenyl}-1,5,5-trimethylimidazolidine-2,4-dione], the chromatographic logP turned out to be 2.96 in data set [1] (setting [3]) and 2.92 in data set [1] (setting [4]). Moreover, the pest or weed control at 500 g/ha in data set [2] (application rate 500 g/ha) turned out to be 100%.

`Cc1cc(F)c(-n2c(=O)n(-c3ccccc3)c(=O)n2CC(F)(F)F)cc1SCC(F)(F)F` [Example 155]: in data set [1], the “logP (HCOOH)” value is 3.93 and the “logP (neutral)” value came to 3.90. This compound had an efficacy in % in data set [2] (application rate 500 g/ha) of 90%.

As for `COCCCn1c(=O)n(C)n(-c2cc(SCC(F)(F)F)c(C)cc2F)c1=O` [Example 159], in data set [1], the “logP (HCOOH)” value was determined as 2.96 and the “logP (neutral)” value is 2.95. In data set [2] (application rate 500 g/ha), this compound showed an efficacy in % of 100%.

Turning to `C=CCn1c(=O)n(CC(F)(F)F)n(-c2cc([S+]([O-])CC(F)(F)F)c(C)cc2F)c1=O` (stereo not drawn) [Example 166], in data set [1], the “logP (HCOOH)” value was 2.72 and the “logP (neutral)” value was found to be 2.89. In data set [2] (application rate 500 g/ha), the efficacy in % was 90%.

Turning to `COc1ccc(-n2c(=O)n(C)c(=O)n2C)cc1[S+]([O-])CC(F)(F)F` (stereo not drawn) [Example 32], in data set [1], the “logP (HCOOH)” value is recorded as 1.58 and the “logP (neutral)” value worked out at 1.54. In data set [2] (application rate 500 g/ha), this compound registered an efficacy in % of 100%.

As to `Cn1c(=O)n(C2CC2)c(=O)n1-c1ccc(Cl)c(SCC(F)(F)F)c1` [Example 40], in data set [1], the “logP (HCOOH)” value is given as 3.04 and the “logP (neutral)” value was 2.98. In data set [2] (application rate 500 g/ha), the efficacy in % is given as 100%.

As to `Cn1c(=O)n(C)n(-c2ccc(Br)c([S+]([O-])CC(F)(F)F)c2)c1=O` (stereo not drawn) [Example 67], in data set [1], the “logP (HCOOH)” value turned out to be 2.05 and the “logP (neutral)” value amounted to 2.02. In data set [2] (application rate 500 g/ha), the efficacy in % stood at 100%.

`Cc1cc(F)c(N2C(=O)CSC2=NCC(C)(C)C)cc1[S+]([O-])CC(F)(F)F` (racemic) [Example 114]: in data set [1], the “logP (HCOOH)” value is 3.66 and the “logP (neutral)” value stood at 3.63. In data set [2] (application rate 500 g/ha), this compound registered an efficacy in % of 90%.

As for `CCn1c(=O)[nH]n(-c2cc(SCC(F)(F)F)c(C)cc2F)c1=O` [Example 85], in data set [1], the “logP (HCOOH)” value was 2.43 and the “logP (neutral)” value came out at 0.86. In addition, in data set [2] (application rate 500 g/ha), the efficacy in % came out at 90%.

`Cc1cc(F)c(-n2c(=O)n(C(C)(C)C)c(=O)n2C)cc1SCC(F)(F)F` [Example 94]: in data set [1], the “logP (HCOOH)” value stood at 3.85 and the “logP (neutral)” value is 3.82. Also, the efficacy in % in data set [2] (application rate 100 g/ha) amounted to 90%.

For the compound `Cc1cc(F)c(N2C(=O)C(=O)N(C(C)(C)C)C2=S)cc1SCC(F)(F)F` [Example 193], in data set [1], the “logP (HCOOH)” value came out at 4.50 and the “logP (neutral)” value is recorded as 4.42. For the same compound, the efficacy in % in data set [2] (application rate 500 g/ha) is 100% and 90%.

For the compound `CCn1c(=O)n(C2CC2)c(=O)n1-c1cc([S+]([O-])CC(F)(F)F)c(C)cc1F` (stereo not drawn) [Example 171], in data set [1], the “logP (HCOOH)” value is on record as 2.18 and the “logP (neutral)” value is 2.15. In data set [2] (application rate 500 g/ha), this compound displayed an efficacy in % of 100%.

Consider `Cc1cc(F)c(-n2c(=O)n(-c3ccccc3)c(=O)n2C)cc1[S+]([O-])CC(F)(F)F` (stereo not drawn) [Example 163], for which, in data set [1], the “logP (HCOOH)” value is listed as 2.44 and the “logP (neutral)” value was 2.38. The efficacy in % in data set [2] (application rate 500 g/ha) is listed as 90%.

`Cc1cc(F)c(N2C(=O)C(C)(C)C(=O)N2c2ccccc2)cc1SCC(F)(F)F` [Example 173]: in data set [1], the “logP (HCOOH)” value is recorded as 3.64 and the “logP (neutral)” value worked out at 3.58. The compound further showed an efficacy in % in data set [2] (application rate 500 g/ha) of 90%.

In the case of `Cc1cc(F)c(N2C(=O)N(C3CC3)C(=O)C2C)cc1SCC(F)(F)F` (stereo not drawn) [Example 214], in data set [1], the “logP (HCOOH)” value turned out to be 3.12. This compound yielded an efficacy in % in data set [2] (application rate 500 g/ha) of 100%.

For the compound `Cc1ccc(-n2c(=O)n(C3CC3)c(=O)n2Cc2ccccc2)cc1SCC(F)(F)F` [Example 90], in data set [1], the “logP (HCOOH)” value is reported as 3.81 and the “logP (neutral)” value was found to be 3.71. Also, in data set [2] (application rate 500 g/ha), the efficacy in % was determined as 100%.

For `CCn1c(=O)n(C(C)(C)C)c(=O)n1-c1cc([S+]([O-])CC(F)(F)F)c(C)cc1F` (stereo not drawn) [Example 137], in data set [1], the “logP (HCOOH)” value is listed as 3.02 and the “logP (neutral)” value worked out at 2.96. This compound yielded an efficacy in % in data set [2] (application rate 500 g/ha) of 90%.

As to `CCC1(CC)C(=O)N(C)N(c2cc([S+]([O-])CC(F)(F)F)c(C)cc2F)C1=O` (stereo not drawn) [Example 176], in data set [1], the “logP (HCOOH)” value was found to be 2.37 and the “logP (neutral)” value amounted to 2.31. In data set [2] (application rate 500 g/ha), the efficacy in % turned out to be 100%.

Regarding `C=CCn1c(=O)n(-c2cc(SCC(F)(F)F)c(C)cc2F)c(=O)n1C` [Example 125], in data set [1], the “logP (HCOOH)” value stood at 2.91. This compound showed an efficacy in % in data set [2] (application rate 500 g/ha) of 100%.
